Measurements from patent US11697650B2, “Compounds having tetrahydroindolizine-1-carboxamide as BCL-2 inhibitors” (Eil Therapeutics, Inc., priority 2021, dated 2023).

Key:
[1] = tested on: caspase-3 and -7 activities in RS4-11 cells; assay: Caspase-3/7 activation (Caspase-Glo 3/7) in RS4-11 cells; type: cell-based; conditions: Homo sapiens, 3.5 h incubation, read-out: Cas-3/7 (EC50 code)
Experimental: The Caspase-Glo 3/7 Assay is homogeneous, luminescent assay that measures caspase-3 and -7 activities. The assay provides a luminogenic caspase-3/7 substrate, which contains the tetrapeptide sequence DEVD, in a reagent optimized for caspase activity.
Incubate RS4-11 cells with varying concentrations of test compounds for 3.5 h in a humidified incubator at 37° C. and 5% CO2 and 30 min at r.t. Add 15 μl Caspase-Glo reagent to each well and incubate the plate for 30 min at r.t. Read on ClarioStar Plus instrument.
Promega Caspase-Glo (Promega, #8212); Frozen RS4-11 cells; 384-well white plate (Corning, #3570).
ClarioStar Plus; Biomek FX for liquid handling (Beckman Coulter).

MOLT-4 cells = assay: Cell viability assay (CellTiter-Glo), MOLT-4; type: cell-based; conditions: Homo sapiens, 72 h, 3 days, read-out: MOLT-4 (CC50 code)
Experimental: (§1) Culture medium for HEK293—DMEM (PanEco, Cat #C420) was used. RPMI-1640 (PanEco, Cat #C363) was used for the rest of the cell lines.
(§2) Compounds were prepared as 200× stocks with serial dilution in 100% DMSO with a final concentration of 1×.
(§3) […] were dispersed in 40 μL aliquots in 384-well plates at a concentration of 2000 cells per well for HEK293 and at a concentration of 4000 cells per well for the rest of the cell lines using a robotic station Biomek (Beckman). Before adding compounds, the cells were incubated at 37° C. (HEK293 were incubated for a day before adding compounds).
(§4) A dilution plate was prepared by pouring 78 μL of the appropriate culture medium using a robotic station Biomek (Beckman). Sequentially, using a robotic station, 2 μL of substances were taken and added to 78 μL of culture medium (dilution of compounds 40×). 10 μL aliquots were taken and added to the plates of the cells (dilution of compounds 5×). The plates were incubated for 3 days at a temperature 37° C. After 3 days, 10 μL of CellTiter-Glo (Promega) was added to the cells and the luminescence was measured.

RS4-11 cells = assay: Cell viability assay (CellTiter-Glo), RS4-11; type: cell-based; conditions: Homo sapiens, 72 h, 3 days, read-out: RS4-11 (CC50 code)
Experimental: as §1, §2, §3, §4

BCL-2 = BCL-2 (Homo sapiens (Human), UniProt P10415); assay: BCL-2 TR-FRET Assay (primary PPI inhibition); type: binding; conditions: 60 min incubation; read-out: BCL2 (IC50 code, BCL-2 TR-FRET)
BCL-2, sequence (P10415 whole entry): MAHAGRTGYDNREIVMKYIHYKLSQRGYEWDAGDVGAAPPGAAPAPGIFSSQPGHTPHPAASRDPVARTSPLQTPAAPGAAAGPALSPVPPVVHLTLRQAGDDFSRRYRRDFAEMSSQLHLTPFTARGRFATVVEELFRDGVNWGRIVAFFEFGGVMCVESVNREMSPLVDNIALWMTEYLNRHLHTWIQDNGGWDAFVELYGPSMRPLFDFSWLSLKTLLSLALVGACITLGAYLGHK
Experimental: BCL-2 TR-FRET Assay (BPS Bioscience, #50222)
(§5) The following assay concentrations and times were used: 3 ng BCL-2, 5 μl of 1:100 anti-His Tb-labeled donor, 5 μl of 1:100 Dye-labeled acceptor, 5 μl of 1:40 BCL-2 Peptide Ligand, and 2 ul of test compound, with 60 min incubation time. The results of the assay were read using a Clariostar (BMG Labtech) plate reader with the following parameters: TR FRET, 340ex/620 and 665em; 60 μsec Delay; and 500 μsec integration.

MCL-1 = MCL-1 (Homo sapiens (Human), UniProt Q07820); assay: MCL-1 TR-FRET Assay (primary PPI inhibition); type: binding; conditions: 60 min incubation; read-out: MCL1 IC50
MCL-1, sequence (Q07820 whole entry): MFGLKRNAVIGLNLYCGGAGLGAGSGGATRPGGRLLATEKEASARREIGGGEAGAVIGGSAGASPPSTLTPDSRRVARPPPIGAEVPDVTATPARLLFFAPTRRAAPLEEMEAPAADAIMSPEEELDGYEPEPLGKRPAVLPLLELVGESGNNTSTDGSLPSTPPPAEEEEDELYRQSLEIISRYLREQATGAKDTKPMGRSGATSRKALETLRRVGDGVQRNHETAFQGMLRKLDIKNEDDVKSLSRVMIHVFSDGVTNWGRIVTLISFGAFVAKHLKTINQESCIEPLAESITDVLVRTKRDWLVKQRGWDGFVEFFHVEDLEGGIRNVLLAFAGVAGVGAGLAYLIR
Experimental: MCL-1 TR-FRET Assay (BPS Bioscience, #79506)
as §5, with “used: 10” for “used: 3”, “ng MCL-1,” for “ng BCL-2,”, “of 1:200” for “of 1:100”, “of 1:10 MCL-1” for “of 1:40 BCL-2”, “2 μl” for “2 ul”

[2] = Cell viability assay (CellTiter-Glo), HEK293; type: cell-based; conditions: human, HEK293 cells, read-out: HEK293 (CC50 code)
Experimental: as §1, §2, §3, §4

BCL-XL = BCL-XL (Homo sapiens (Human), UniProt Q07817); assay: BCL-XL TR-FRET Assay (primary PPI inhibition); type: binding; conditions: 60 min incubation; read-out: BCLxL (IC50 code, BCL-XL TR-FRET)
BCL-XL, sequence (Q07817 whole entry): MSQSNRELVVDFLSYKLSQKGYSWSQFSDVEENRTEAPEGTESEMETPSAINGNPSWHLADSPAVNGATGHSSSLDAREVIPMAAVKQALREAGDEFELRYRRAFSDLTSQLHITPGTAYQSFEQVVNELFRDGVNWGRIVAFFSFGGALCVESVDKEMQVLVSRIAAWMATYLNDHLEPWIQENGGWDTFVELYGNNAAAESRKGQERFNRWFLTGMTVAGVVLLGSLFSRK
Experimental: BCL-XL TR-FRET Assay (BPS Bioscience, #50223)
as §5, with “used: 10.5” for “used: 3”, “ng BCL-XL,” for “ng BCL-2,”, “of 1:80 BCL-XL” for “of 1:40 BCL-2”, “2 μl” for “2 ul”

SMILES	EC50 [1]	CC50 (MOLT-4 cells)	CC50 (RS4-11 cells)	IC50 (BCL-2)	IC50 (MCL-1)	CC50 at 3 days [2]	IC50 (BCL-XL)
CN(C)CCNC(=O)c1cccc(CN(C(=O)c2cc(-c3cc4c(cc3C(=O)N3Cc5ccccc5C[C@H]3CN3CCOCC3)OCO4)n3c2CCCC3)c2ccc(O)cc2)c1 [Compound 6, N-(3-{[2-(dimethylamino)ethyl]carbamoyl}benzyl)-N-(4-hydroxyphenyl)-3-(6-{[(3S)-3-(morpholin-4-ylmethyl)-3,4-dihydroisoquinolin-2(1H)-yl]carbonyl}-1,3-benzodioxol-5-yl)-5,6,7,8-tetrahydroindolizine-1-carboxamide]	> 250 nM	> 10000 nM	> 200 nM	≤ 5 nM	> 100000 nM	10000 to 25000 nM	–
COCCNC(=O)c1cccc(CN(C(=O)c2cc(-c3cc4c(cc3C(=O)N3Cc5ccccc5C[C@H]3CN3CCOCC3)OCO4)n3c2CCCC3)c2ccc(O)cc2)c1 [Compound 2, N-(4-hydroxyphenyl)-N-{3-[(2-methoxyethyl)carbamoyl]benzyl}-3-(6-{[(3S)-3-(morpholin-4-ylmethyl)-3,4-dihydroisoquinolin-2(1H)-yl]carbonyl}-1,3-benzodioxol-5-yl)-5,6,7,8-tetrahydroindolizine-1-carboxamide]	> 250 nM	> 10000 nM	100 to 200 nM	≤ 5 nM	> 100000 nM	≤ 10000 nM	–
CN1CCN(C(=O)c2cccc(CN(C(=O)c3cc(-c4cc5c(cc4C(=O)N4Cc6ccccc6C[C@H]4CN4CCOCC4)OCO5)n4c3CCCC4)c3ccc(O)cc3)c2)CC1 [Compound 10, N-(4-hydroxyphenyl)-N-{3-[(4-methylpiperazin-1-yl)carbonyl]benzyl}-3-(6-{[(3S)-3-(morpholin-4-ylmethyl)-3,4-dihydroisoquinolin-2(1H)-yl]carbonyl}-1,3-benzodioxol-5-yl)-5,6,7,8-tetrahydroindolizine-1-carboxamide]	> 250 nM	> 10000 nM	> 200 nM	5 to 10 nM	> 100000 nM	10000 to 25000 nM	–
Cc1c(CN(C(=O)c2cc(-c3cc4c(cc3C(=O)N3Cc5ccccc5C[C@H]3CN3CCOCC3)OCO4)n3c2CCCC3)c2ccc(O)cc2)cccc1[N+](=O)[O-] [Compound 50, N-(4-Hydroxyphenyl)-N-[(2-methyl-3-nitro-phenyl)methyl]-3-[6-[(3S)-3-(morpholinomethyl)-3,4-dihydro-1H-isoquinoline-2-carbonyl]-1,3-benzodioxol-5-yl]-5,6,7,8-tetrahydroindolizine-1-carboxamide]	> 250 nM	2000 to 10000 nM	> 200 nM	> 50 nM	–	> 25000 nM	> 4000 nM
O=C(c1cc(-c2cc3c(cc2C(=O)N2Cc4ccccc4C[C@H]2CN2CCOCC2)OCO3)n2c1CCCC2)N(Cc1ccncc1)c1ccc(O)cc1 [Compound 9, N-(4-hydroxyphenyl)-3-(6-{[(3S)-3-(morpholin-4-ylmethyl)-3,4-dihydroisoquinolin-2(1H)-yl]carbonyl}-1,3-benzodioxol-5-yl)-N-(pyridin-4-ylmethyl)-5,6,7,8-tetrahydroindolizine-1-carboxamide]	100 to 250 nM	2000 to 10000 nM	100 to 200 nM	≤ 5 nM	–	10000 to 25000 nM	2000 to 4000 nM
O=C(c1cc(-c2cc3c(cc2C(=O)N2Cc4ccccc4C[C@H]2CN2CCOCC2)OCO3)n2c1CCCC2)N(Cc1ccccc1-c1ccccc1)c1ccc(O)cc1 [Compound 18, N-(biphenyl-2-ylmethyl)-N-(4-hydroxyphenyl)-3-(6-{[(3S)-3-(morpholin-4-ylmethyl)-3,4-dihydroisoquinolin-2(1H)-yl]carbonyl}-1,3-benzodioxol-5-yl)-5,6,7,8-tetrahydroindolizine-1-carboxamide]	> 250 nM	2000 to 10000 nM	> 200 nM	10 to 50 nM	–	> 25000 nM	≤ 2000 nM
Cc1ccc(CN(C(=O)c2cc(-c3cc4c(cc3C(=O)N3Cc5ccccc5C[C@H]3CN3CCOCC3)OCO4)n3c2CCCC3)c2ccc(O)cc2)cc1 [Compound 20, N-(4-hydroxyphenyl)-N-(4-methylbenzyl)-3-(6-{[(3S)-3-(morpholin-4-ylmethyl)-3,4-dihydroisoquinolin-2(1H)-yl]carbonyl}-1,3-benzodioxol-5-yl)-5,6,7,8-tetrahydroindolizine-1-carboxamide]	> 250 nM	2000 to 10000 nM	100 to 200 nM	5 to 10 nM	–	≤ 10000 nM	2000 to 4000 nM
O=C(c1cc(-c2cc3c(cc2C(=O)N2Cc4ccccc4C[C@H]2CN2CCOCC2)OCO3)n2c1CCCC2)N(Cc1ccccc1C(F)(F)F)c1ccc(O)cc1 [Compound 5, N-(4-hydroxyphenyl)-3-(6-{[(3S)-3-(morpholin-4-ylmethyl)-3,4-dihydroisoquinolin-2(1H)-yl]carbonyl}-1,3-benzodioxol-5-yl)-N-[2-(trifluoromethyl)benzyl]-5,6,7,8-tetrahydroindolizine-1-carboxamide]	≤ 100 nM	2000 to 10000 nM	≤ 100 nM	≤ 5 nM	–	> 25000 nM	≤ 2000 nM
COc1c(C)cnc(CN(C(=O)c2cc(-c3cc4c(cc3C(=O)N3Cc5ccccc5C[C@H]3CN3CCOCC3)OCO4)n3c2CCCC3)c2ccc(O)cc2)c1C [Compound 23, N-(4-hydroxyphenyl)-N-[(4-methoxy-3,5-dimethylpyridin-2-yl)methyl]-3-(6-{[(3S)-3-(morpholin-4-ylmethyl)-3,4-dihydroisoquinolin-2(1H)-yl]carbonyl}-1,3-benzodioxol-5-yl)-5,6,7,8-tetrahydroindolizine-1-carboxamide]	> 250 nM	> 10000 nM	> 200 nM	10 to 50 nM	–	10000 to 25000 nM	> 4000 nM
O=C(c1cc(-c2cc3c(cc2C(=O)N2Cc4ccccc4C[C@H]2CN2CCOCC2)OCO3)n2c1CCCC2)N(Cc1ccccc1Cl)c1ccc(O)cc1 [Compound 33, N-(2-chlorobenzyl)-N-(4-hydroxyphenyl)-3-(6-{[(3S)-3-(morpholin-4-ylmethyl)-3,4-dihydroisoquinolin-2(1H)-yl]carbonyl}-1,3-benzodioxol-5-yl)-5,6,7,8-tetrahydroindolizine-1-carboxamide]	≤ 100 nM	≤ 2000 nM	≤ 100 nM	≤ 5 nM	–	10000 to 25000 nM	≤ 2000 nM
O=C(c1cc(-c2cc3c(cc2C(=O)N2Cc4ccccc4C[C@H]2CN2CCOCC2)OCO3)n2c1CCCC2)N(Cc1c(Cl)ccc(F)c1F)c1ccc(O)cc1 [Compound 35, N-(6-chloro-2,3-difluorobenzyl)-N-(4-hydroxyphenyl)-3-(6-{[(3S)-3-(morpholin-4-ylmethyl)-3,4-dihydroisoquinolin-2(1H)-yl]carbonyl}-1,3-benzodioxol-5-yl)-5,6,7,8-tetrahydroindolizine-1-carboxamide]	> 250 nM	≤ 2000 nM	> 200 nM	10 to 50 nM	–	> 25000 nM	> 4000 nM
